Measurements: US20080033056A1 (Metaproteomics, LLC, priority 2006, published 2008)
Marks after values point to notes of the source that are not given here.

Legend:
[1] = tested on: LPS-treated 3T3-L1 adipocytes; test: Adiponectin secretion in LPS/3T3-L1 adipocytes; format: cell-based, murine; conditions: for adiponectin secretion: any dose tested; for % Stimulation of adiponectin secretion (maximum): at the concentration of maximum stimulation, NS = not significantly different from the LPS control
[2] = tested on: insulin-resistant 3T3-L1 adipocytes; test: IL-6 secretion from insulin-resistant 3T3-L1 adipocytes; format: cell-based, murine
Experimental: Statistical Calculations and Interpretation—All assays were preformed in duplicate. For statistical analysis, the effect of hops derivatives on adiponectin or IL-6 secretion was computed relative to the solvent control. Differences among the doses were determined using analysis of variance without correction for multiple comparisons; the nominal five percent probability of a type I error was selected.

[3] = tested on: 3T3-L1 adipocytes; test: Lipogenesis in 3T3-L1 adipocytes (Oil Red O / BODIPY); format: cell-based, murine; conditions: relative to controls
Experimental: Prior to experiments, cells were cultured in DMEM containing 10% FBS-HI added 50 units penicillin/ml and 50 μg streptomycin/ml, and maintained in log phase prior to experimental setup. Cells were grown in a 5% CO2 humidified incubator at 37° C. Components of the pre-confluent medium included (1) 10% FBS/DMEM containing 4.5 g glucose/L; (2) 50 U/ml penicillin; and (3) 50 μg/ml streptomycin. Growth medium was made by adding 50 ml of heat inactivated FBS and 5 ml of penicillin/streptomycin to 500 ml DMEM. This medium was stored at 4° C. Before use, the medium was warmed to 37° C. in a water bath.
3T3-T1 cells were seeded at an initial density of 6×10^4 cells/cm^2 in 24-well plates. For two days, the cells were allowed grow to reach confluence. Following confluence, the cells were forced to differentiate into adipocytes by the addition of differentiation medium; this medium consisted of (1) 10% FBS/DMEM (high glucose); (2) 0.5 mM methylisobutylxanthine; (3) 0.5 μM dexamethasone and (4) 10 μg/ml insulin (MDI medium). After three days, the medium was changed to post-differentiation medium consisting of 10 μg/ml insulin in 10% FBS/DMEM.
AcE was partially dissolved in dimethyl sulfoxide (DMSO) and added to the culture medium to achieve a concentration of 50 μg/ml at Day 0 of differentiation and throughout the maturation phase (Days 6 or 7 (D6/7)). Whenever fresh media were added, fresh test material was also added. DMSO was chosen for its polarity and the fact that it is miscible with the aqueous cell culture media.
Oil Red O Staining—Triglyceride content of D6/D7-differentiated 3T3-L1 cells was estimated with Oil Red O according to the method of Kasturi and Joshi [Kasturi, R. and Joshi, V. C. […] Monolayer cells were washed with PBS (phosphate buffered saline, Mediatech) and fixed with 10% formaldehyde for ten minutes. Fixed cells were stained with an Oil Red O working solution of three parts 0.6% Oil Red O/isopropanol stock solution and two parts water for one hour and the excess stain was washed once with water. The resulting stained oil droplets were extracted from the cells with isopropanol and quantified by spectrophotometric analysis at 540 nm (MEL312e BIO-KINETICS READER, Bio-Tek Instruments, Winooski, Vt.).
Briefly, media were removed and cells were washed once with non-sterile PBS. A stock 1000× BODIPY/DMSO solution was made by dissolving 1 mg BODIPY in 1 ml DMSO (1,000 μg BODIPY/ml). […] After 15 min on an orbital shaker (DS-500, VWR Scientific Products, South Plainfield, N.J.) at ambient temperature, the cells were washed with 100 μl PBS followed by the addition of 100 μl PBS for reading for spectrofluorometric determination of BODIPY incorporation into the cells. […]

[4] = tested on: LPS-stimulated 3T3-L1 adipocytes; test: IL-6 secretion in LPS/3T3-L1 adipocytes; format: cell-based, murine; conditions: at the concentration of maximum inhibition, 100 ng LPS/ml, D5 3T3-L1; for IL-6 Index: indexed to LPS control
[5] = tested on: db/db mice; test: Non-fasting serum glucose and insulin in db/db diabetic mice; format: in vivo, mouse; conditions: three daily doses
Experimental: The Model—Male, C57BLKS/J m^+/m^+Lepr^db (db/db) mice were used to assess the potential of the test materials to reduce fasting serum glucose or insulin concentrations. This strain of mice is resistant to leptin by virtue of the absence of a functioning leptin receptor.
Testing Procedure—Test substances were administered daily by gavage in 0.2% Tween-80. Serum was collected from the retroorbital sinus before the initial dose and ninety minutes after the third and final dose. Non-fasting serum glucose was determined enzymatically by the mutarotase/glucose oxidase method and serum insulin was determined by a mouse specific ELISA.
The Model—Male, C57BLKS/J m+/m+Leprdb (db/db) mice were used to assess the potential of the test materials to reduce fasting serum glucose or insulin concentrations. This strain of mice is resistant to leptin by virtue of the absence of a functioning leptin receptor.
Testing Procedure—Test substances were administered daily by gavage in 0.2% Tween-80. […] Non-fasting serum glucose was determined enzymatically by the mutarotase/glucose oxidase method and serum insulin was determined by a mouse specific ELISA.

[6] = tested on: DBA/J mice; test: Collagen induced rheumatoid arthritis murine model (arthritic index, histology, serum IL-6); format: in vivo, mouse; conditions: 10 mg/kg
[7] = tested on: insulin-resistant 3T3-L1 adipocytes; test: Adiponectin secretion from insulin-resistant 3T3-L1 adipocytes; format: cell-based, murine; conditions: 50.0 μg/ml; ratio of Adiponectin Index to IL-6 Index (Table 21)
[8] = tested on: TNFα-treated 3T3-L1 adipocytes; test: Adiponectin secretion from TNFα-treated 3T3-L1 adipocytes; format: cell-based, murine; conditions: 10 ng TNFα/ml
Experimental: For two days, the cells were allowed grow to reach confluence. […] (3) 0.5 μM dexamethasone and (4) 10 μg/ml insulin (MDI medium). […] Adiponectin Assay—The adiponectin secreted into the medium was quantified using the Mouse Adiponectin Quantikine® Immunoassay kit with no modifications (R&D Systems, Minneapolis, Minn.). […] Statistical Calculations and Interpretation—All assays were preformed in duplicate. […] Differences among the doses and test agents were determined using the Student's t-test without correction for multiple comparisons; the nominal five percent probability of a type I error was selected.

[9] = tested on: A549 pulmonary epithelial cells; test: PGE2 biosynthesis in A549 cells stimulated by mite dust allergen; format: cell-based, human; conditions: 10 μg/ml
Experimental: The filtrate was termed mite dust allergen and used to test for induction of PGE2 biosynthesis in A549 pulmonary epithelial cells.
Mite allergen was added to the culture medium to achieve a final concentration of 1000 ng/ml. Eighteen hours later, the media were sampled for PGE2 determination.

Question: With `CC(=O)Oc1ccccc1C(=O)O` [Aspirin] as the compound, how does the adiponectin secretion ([1]; LPS 100 ng/ml) read?
Answer: Its adiponectin secretion is “failed to induce adiponectin secretion”.

Question: How did the IL-6 secretion [2] turn out when `COc1cc(O)c(CC=C(C)C)c(O)c1C(=O)/C=C/c1ccc(O)cc1` [xanthohumol] was run?
Answer: The IL-6 secretion was “Significant decreases in IL-6 secretion”.

Question: What about the lipogenic/adipogenic response [3] of the same compound?
Answer: Its lipogenic/adipogenic response is “comparable to indomethacin and troglitazone”.

Question: For `COc1ccc2c(c1)c(CC(=O)O)c(C)n2C(=O)c1ccc(Cl)cc1` [Indomethacin], which “stimulation of adiponectin secretion” value ([1]; LPS 100 ng/ml, […]) is on record?
Answer: Its value is 9%.

Question: What about the “% Stimulation of adiponectin secretion (maximum)” value (“% Stimulation” for short) [1] of the same compound?
Answer: Its value is 9%.

Question: And the lipogenic/adipogenic response [3]?
Answer: The lipogenic/adipogenic response was “induced lipogenesis to a similar extent”.

Question: What about the “% Inhibition of IL-6 secretion (maximum)” value [4] of the same compound?
Answer: Its value is 53* %.

Question: `CN(C)C(=N)N=C(N)N` [metformin] was tested. Which “serum glucose relative to the controls” value [5] did it give?
Answer: The value was “decreased”.

Question: What about the “serum insulin relative to the controls” value [5] of the same compound?
Answer: Its value is “decreased”.

Question: `CC(C)CCC1=C(O)C(C(=O)C(C)C)=C(O)C(CCC(C)C)(CCC(C)C)C1=O` [Hexahydro colupulone] was tested. Which lipogenic/adipogenic response [3] did it give?
Answer: The lipogenic/adipogenic response was “failed to elicit a lipogenic response”.

Question: For `C[C@]12C=CC(=O)C=C1CC[C@@H]1[C@@H]2[C@@H](O)C[C@@]2(C)[C@H]1CC[C@]2(O)C(=O)CO` [prednisolone], which “reduction of serum IL-6 levels” value [6] is on record?
Answer: Its value is “reached a statistical significance”.

Question: Which Adiponectin/IL-6 [7] does the source give for `CC(C)CCC1=C(O)C(C(=O)C(C)C)=C(O)C(CCC(C)C)(CCC(C)C)C1=O` [Hexahydrocolupulone (HHCL)] here?
Answer: Its Adiponectin/IL-6 is 0.60#.

Question: `Cc1c(C)c2c(c(C)c1O)CCC(C)(COc1ccc(CC3SC(=O)NC3=O)cc1)O2` (stereo not shown) [Troglitazone] was tested. Which “maximum increase of adiponectin secretion over TNFα control” value [8] did it give?
Answer: Its value is 51%.

Question: What about the “% Stimulation” value [1] of the same compound?
Answer: The value was 15%.

Question: For `O=C(O)c1ccccc1O` [salicylic acid], which adiponectin secretion ([1]; LPS 100 ng/ml) is on record?
Answer: Its adiponectin secretion is “failed to induce adiponectin secretion”.

Question: And the “IL-6 Index” value [4]?
Answer: Its value is 0.52*.

Question: Beta acids was tested. Which “Percent PGE2 Inhibition” value [9] did it give?
Answer: Its value is 83%.

Question: And the lipogenic/adipogenic response [3]?
Answer: Its lipogenic/adipogenic response is “comparable to indomethacin and troglitazone”.

Question: How did the “maximum increase of adiponectin secretion over TNFα control” value [8] turn out when `CCc1ccc(CCOc2ccc(CC3SC(=O)NC3=O)cc2)nc1` (stereo not shown) [Pioglitazone] was run?
Answer: The value was 80%.

Question: What about the “Adiponectin Index (maximum)” value ([8]; Test/TNFα control) of the same compound?
Answer: Its value is 1.47.

Question: What about the “% Stimulation” value [1] of the same compound?
Answer: Its value is 12%.

Question: And the “IL-6 Index” value [4]?
Answer: The value was 0.37*.
